Test results from patent US6921840B1 (The Trustees of the University of Pennsylvania, priority 1999, dated 2005).
Several values for one entry are separate records, joined by “and”; a condition that tells them apart may be missing. Equal values may be shown once. Read-outs that look alike come from different tables or passages of the source.

Legend:
[1] = Biodistribution in rats after i.v. injection of radioactive tracer; type: in vivo, rat
Description: Three or four rats per group were used for each biodistribution study. While under ether anesthesia, 0.2 ml of a saline solution containing 10 μCi of radioactive tracer was injected into the femoral vein. The rats were sacrificed at the time indicated by cardiac excision while under ether anesthesia. Organs of interest were removed and weighed, and the radioactivity was counted using a Packard automatic gamma counter (Model 5000). The percent dose per organ was calculated by a comparison of the tissue counts to counts of 1% of the initial dose (100 times diluted aliquots of the injected material) measured at the same time.
Regional brain distribution in rats was measured after an i.v. injection of the radioactive tracer. Samples from different brain regions [cortex (CX), striatum (ST), hippocampus (HP), cerebellum (CB) and hypothalamus (HY)] were dissected, weighed and counted. The percentage dose/g of each sample was calculated by comparing sample counts with the counts of the diluted initial dose described above. The ratio of specific binding (SB) in each region was obtained by dividing the difference of each region from the cerebellum (percentage dose/g) with that of the cerebellum [(region-CB)/CB].

[2] = Partition coefficient octanol/buffer; type: physicochemical; conditions: n-octanol and phosphate buffer, pH 7.4
[3] = In vitro stability of radioiodinated ligand; type: physicochemical; conditions: in 50% ethanol for up to two months after radioiodination
[4] = Metabolite analysis of brain tissue; type: in vivo, rat; conditions: rats, 60 min post-injection
Description: Sixty minutes after an i.v. injection of 200-300 μCi of [^125I]IDAM into two male rats, the areas corresponding to the hypothalamus region were dissected individually. The tissues were then homogenized in 1.5 ml of 50 mM Tris buffer (pH 7.4) and the homogenates were extracted with ethyl acetate (3×1.5 ml) in the presence of the non-radioactive IDAM (100 μg). The extracted ethyl acetate layers were evaporated to near dryness and the purity of [^125I]IDAM in the condensed extracts was analyzed by HPLC (PRP-1 column; solvent: CH3CN/DMGA: 90/10; flow rate: 1 ml/min). Control samples were performed by adding 5-10 μCi of [^125I]IDAM to hypothalamus tissues followed by the same procedures used for the experimental samples to determine the extraction efficiency.

[5] = molecular target: T1, SERT (Rattus norvegicus, UniProt P31652)
T1 sequence (P31652 whole entry): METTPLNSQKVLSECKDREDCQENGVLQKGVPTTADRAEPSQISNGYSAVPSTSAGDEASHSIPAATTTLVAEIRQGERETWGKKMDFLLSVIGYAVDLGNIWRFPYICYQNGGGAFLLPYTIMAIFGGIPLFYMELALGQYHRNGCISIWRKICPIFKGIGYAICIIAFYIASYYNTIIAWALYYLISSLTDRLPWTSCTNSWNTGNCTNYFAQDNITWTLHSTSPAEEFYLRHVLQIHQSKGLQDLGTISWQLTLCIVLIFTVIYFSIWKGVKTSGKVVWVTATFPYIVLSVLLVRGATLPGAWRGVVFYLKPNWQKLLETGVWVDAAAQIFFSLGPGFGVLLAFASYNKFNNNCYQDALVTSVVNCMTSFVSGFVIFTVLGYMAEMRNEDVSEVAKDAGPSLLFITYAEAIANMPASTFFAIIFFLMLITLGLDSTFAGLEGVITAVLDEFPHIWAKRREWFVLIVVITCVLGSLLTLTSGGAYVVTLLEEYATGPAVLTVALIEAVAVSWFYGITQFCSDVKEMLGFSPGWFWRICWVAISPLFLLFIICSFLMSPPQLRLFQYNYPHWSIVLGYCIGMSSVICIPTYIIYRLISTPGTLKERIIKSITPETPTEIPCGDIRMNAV
Description: At 60 min post i.v. injection, the animals were sacrificed by cardiac excision while under ether anesthesia. The brains were rapidly removed, placed in embedding medium (Tissue Tek, Miles Laboratory, Elkhart, Ind.) and frozen with powdered dry ice. After reaching equilibrium at −20° C. consecutive 20 μm coronal sections were cut on a cryostat microtome (Hacker Instruments, Fairfield, N.J.) thaw-mounted on microscope slides, and air-dried at room temperature. […] The microscale standards were calibrated with tissue mash standards for the value conversion to nCi/mg protein. The exposed film was developed by a Kodak automatic film processor. […] The brain sections of the pretreated rats were processed following the same procedures described above for the normal untreated rats.

[6] = molecular target: T1, SERT; test: [125I]IDAM saturation binding to rat frontal cortical membrane homogenates; design: The frontal cortex of rat brain were dissected and homogenized in 30 volumes of buffer; from tissue; host or cells: rat frontal cortex membrane homogenates (male Sprague-Dawley rats, control and PCA-lesioned)
Description: The homogenates were centrifuged at 20,000 g for 20 min. The resulting pellets were then re-suspended and recentrifuged. The final pellets were suspended in the same buffer and used for in vitro binding assays.
Binding assays were performed in glass tubes (12×75 mm) with a final volume of 0.5 ml.
Various inhibitors were serially diluted with the buffer containing 0.1% BSA to overcome the stickiness and loss due to dilution. […] Incubation was carried out for 60 min at room temperature and then terminated by separation of bound from free radioligand by filtration through glass fiber filters (Schleicher & Schuell No. 25, Keene, N.H.) presoaked with 1% polyethylenimine. The filters were then washed three times with 3 ml of ice-cold […] Tris buffer and counted in a gamma counter (Packard 5000) with 70% efficiency. To study the effect of […], the homogenates were prepared in a sodium-free 50 mM Tris-HCl/5 mM KCl buffer.
Ten rats were divided into two-groups, and they were injected daily with PCA (8 mg/kg, i.p.) or saline for 3 consecutive days, respectively. The animals were sacrificed 5 days after the last injection and the frontal cortical membrane homogenates were prepared.

[7] = PCA-lesioned rats, frontal cortical membranes
[8] = control rats, frontal cortical membranes

CN(C)Cc1ccccc1Sc1ccc([125I])cc1CO [[^125I]IDAM]
half-time of clearance from the brain regions [1]: less than 60 min | % dose/g CEREBELLUM ([1]; 2 min): 1.377 ± 0.479 % dose/g | % dose/g CORTEX ([1]; 2 min): 2.353 ± 0.444 % dose/g | % dose/g HIPPOCAMPUS ([1]; 2 min): 1.485 ± 0.263 % dose/g | % dose/g HYPOTHALAMUS ([1]; 2 min): 1.782 ± 0.412 % dose/g | % dose/g STRIATUM ([1]; 2 min): 1.377 ± 0.344 % dose/g | % dose/organ BLOOD ([1]; 2 min): 7.619 ± 0.41 % dose/organ | % dose/organ BRAIN ([1]; 2 min): 2.44 % dose/organ and 2.44 ± 0.34 % dose/organ | % dose/organ HEART ([1]; 2 min): 1.303 ± 0.10 % dose/organ | % dose/organ KIDNEY ([1]; 2 min): 6.54 ± 0.26 % dose/organ | % dose/organ LIVER ([1]; 2 min): 6.46 ± 1.18 % dose/organ | % dose/organ LUNG ([1]; 2 min): 10.42 ± 1.36 % dose/organ | % dose/organ MUSCLE ([1]; 2 min): 19.06 ± 8.51 % dose/organ | % dose/organ SKIN ([1]; 2 min): 3.27 ± 0.48 % dose/organ | % dose/organ SPLEEN ([1]; 2 min): 0.31 ± 0.08 % dose/organ | SB: specific binding = (region-CB)/CB, CORTEX ([1]; 2 min): 0.709 | SB: specific binding = (region-CB)/CB, HIPPOCAMPUS ([1]; 2 min): 0.079 | SB: specific binding = (region-CB)/CB, HYPOTHALAMUS ([1]; 2 min): 0.294 | SB: specific binding = (region-CB)/CB, STRIATUM ([1]; 2 min): 0.000 | total radioactivity recovered from the major organs ([1]; 2 min post-injection): less than 60 % of total injected dose | % dose/g CEREBELLUM ([1]; 30 min): 0.416 ± 0.045 % dose/g | % dose/g CORTEX ([1]; 30 min): 0.820 ± .0108 % dose/g | % dose/g HIPPOCAMPUS ([1]; 30 min): 0.832 ± 0.048 % dose/g | % dose/g HYPOTHALAMUS ([1]; 30 min): 0.918 ± 0.113 % dose/g | % dose/g STRIATUM ([1]; 30 min): 0.875 ± 0.086 % dose/g | % dose/organ BLOOD ([1]; 30 min): 7.63 ± 1.03 % dose/organ | % dose/organ BRAIN ([1]; 30 min): 1.174 ± 0.062 % dose/organ | % dose/organ HEART ([1]; 30 min): 0.27 ± 0.02 % dose/organ | % dose/organ KIDNEY ([1]; 30 min): 3.48 ± 0.643 % dose/organ | % dose/organ LIVER ([1]; 30 min): 4.709 ± 0.347 % dose/organ | % dose/organ LUNG ([1]; 30 min): 1.78 ± 0.08 % dose/organ | % dose/organ MUSCLE ([1]; 30 min): 16.27 ± 0.82 % dose/organ | % dose/organ SKIN ([1]; 30 min): 6.121 ± 0.536 % dose/organ | % dose/organ SPLEEN ([1]; 30 min): 0.279 ± 0.026 % dose/organ | SB: specific binding = (region-CB)/CB, CORTEX ([1]; 30 min): 0.972 | SB: specific binding = (region-CB)/CB, HIPPOCAMPUS ([1]; 30 min): 1.002 | SB: specific binding = (region-CB)/CB, HYPOTHALAMUS ([1]; 30 min): 1.208 | SB: specific binding = (region-CB)/CB, STRIATUM ([1]; 30 min): 1.104 | % dose/g CEREBELLUM ([1]; 60 min): 0.153 ± 0.019 % dose/g | % dose/g CORTEX ([1]; 60 min): 0.310 ± 0.060 % dose/g | % dose/g HIPPOCAMPUS ([1]; 60 min): 0.355 ± 0.016 % dose/g | % dose/g HYPOTHALAMUS ([1]; 60 min): 0.422 ± 0.066 % dose/g | % dose/g STRIATUM ([1]; 60 min): 0.257 ± 0.042 % dose/g | % dose/organ BLOOD ([1]; 60 min): 6.380 ± 0.729 % dose/organ | % dose/organ BRAIN ([1]; 60 min): 0.50 % dose/organ and 0.503 ± 0.027 % dose/organ | % dose/organ HEART ([1]; 60 min): 0.187 ± 0.008 % dose/organ | % dose/organ KIDNEY ([1]; 60 min): 1.993 ± 0.351 % dose/organ | % dose/organ LIVER ([1]; 60 min): 4.120 ± 0.766 % dose/organ | % dose/organ LUNG ([1]; 60 min): 0.931 ± 0.086 % dose/organ | % dose/organ MUSCLE ([1]; 60 min): 6.775 ± 0.145 % dose/organ | % dose/organ SKIN ([1]; 60 min): 7.538 ± 0.127 % dose/organ | % dose/organ SPLEEN ([1]; 60 min): 0.167 ± 0.027 % dose/organ | SB: specific binding = (region-CB)/CB, CORTEX ([1]; 60 min): 1.024 | SB: specific binding = (region-CB)/CB, HIPPOCAMPUS ([1]; 60 min): 1.313 | SB: specific binding = (region-CB)/CB, HYPOTHALAMUS ([1]; 60 min): 1.75 | SB: specific binding = (region-CB)/CB, STRIATUM ([1]; 60 min): 0.673 | % dose/g CEREBELLUM ([1]; 120 min): 0.053 ± 0.005 % dose/g | % dose/g CORTEX ([1]; 120 min): 0.89 ± 0.018 % dose/g | % dose/g HIPPOCAMPUS ([1]; 120 min): 0.134 ± 0.011 % dose/g | % dose/g HYPOTHALAMUS ([1]; 120 min): 0.142 ± 0.027 % dose/g | % dose/g STRIATUM ([1]; 120 min): 0.105 ± 0.052 % dose/g | % dose/organ BLOOD ([1]; 120 min): 4.160 ± 0.150 % dose/organ | % dose/organ BRAIN ([1]; 120 min): 0.17 % dose/organ and 0.168 ± 0.029 % dose/organ | % dose/organ HEART ([1]; 120 min): 0.114 ± 0.023 % dose/organ | % dose/organ KIDNEY ([1]; 120 min): 0.832 ± 0.071 % dose/organ | % dose/organ LIVER ([1]; 120 min): 2.722 ± 0.308 % dose/organ | % dose/organ LUNG ([1]; 120 min): 0.422 ± 0.055 % dose/organ | % dose/organ MUSCLE ([1]; 120 min): 4.714 ± 0.977 % dose/organ | % dose/organ SKIN ([1]; 120 min): 6.716 ± 1.304 % dose/organ | % dose/organ SPLEEN ([1]; 120 min): 0.066 ± 0.008 % dose/organ | SB: specific binding = (region-CB)/CB, CORTEX ([1]; 120 min): 0.674 | SB: specific binding = (region-CB)/CB, HIPPOCAMPUS ([1]; 120 min): 1.524 | SB: specific binding = (region-CB)/CB, HYPOTHALAMUS ([1]; 120 min): 1.679 | SB: specific binding = (region-CB)/CB, STRIATUM ([1]; 120 min): 0.967 | % dose/g CEREBELLUM ([1]; 240 min): 0.012 ± 0.000 % dose/g | % dose/g CORTEX ([1]; 240 min): 0.017 ± 0.003 % dose/g | % dose/g HIPPOCAMPUS ([1]; 240 min): 0.020 ± 0.003 % dose/g | % dose/g HYPOTHALAMUS ([1]; 240 min): 0.022 ± 0.011 % dose/g | % dose/g STRIATUM ([1]; 240 min): 0.018 ± 0.002 % dose/g | % dose/organ BLOOD ([1]; 240 min): 2.246 ± 0.303 % dose/organ | % dose/organ BRAIN ([1]; 240 min): 0.033 ± 0.002 % dose/organ | % dose/organ HEART ([1]; 240 min): 0.048 ± 0.004 % dose/organ | % dose/organ KIDNEY ([1]; 240 min): 0.488 ± 0.065 % dose/organ | % dose/organ LIVER ([1]; 240 min): 1.469 ± 0.189 % dose/organ | % dose/organ LUNG ([1]; 240 min): 0.220 ± 0.018 % dose/organ | % dose/organ MUSCLE ([1]; 240 min): 2.818 ± 0.208 % dose/organ | % dose/organ SKIN ([1]; 240 min): 3.851 ± 0.073 % dose/organ | % dose/organ SPLEEN ([1]; 240 min): 0.024 ± 0.004 % dose/organ | SB: specific binding = (region-CB)/CB, CORTEX ([1]; 240 min): 0.475 | SB: specific binding = (region-CB)/CB, HIPPOCAMPUS ([1]; 240 min): 0.705 | SB: specific binding = (region-CB)/CB, HYPOTHALAMUS ([1]; 240 min): 0.865 | SB: specific binding = (region-CB)/CB, STRIATUM ([1]; 240 min): 0.508 | partition coefficient (PC) [2]: 473 | logD ([2]; read-out: partition coefficient (PC) (converted)): 2.67 | stability: radiochemical purity determined by HPLC [3]: > 95% | unmetabolized tracer recovered from hypothalamus region [4]: > 95% | nonspecific binding (non-paroxetine blockable) ([5]; HP): more than 70% | percentage of specific binding (paroxetine blockable) ([5]; hippocampal regions and several cortical regions): less than 30% | percentage of specific binding (paroxetine blockable) ([5]; interperduncular nucleus, median raphe and dorsomedial hypothalamus): more than 95% | Bmax of [125I]IDAM binding [6, 7]: 20±7 fmol/mg protein | Kd [6, 7]: 0.05 ± 0.15 nM | Kd of [125I]IDAM binding [6, 7]: no significant change | loss of [125I]IDAM binding to rat cortical membranes ([6]; after destruction of serotonergic neurons by PCA): 90% | nonspecific binding ([6]; at Kd value, rat frontal cortical membranes): < 5% | Bmax of [125I]IDAM binding [6, 8]: 272±30 fmol/mg protein | Kd [6, 8]: 0.25 nM and 0.2 nM
